Data on seven compounds can be found in patent US12357622B2, “Pharmaceutical composition of S1PR modulators” (UNIVERSITA DEGLI STUDI DI FIRENZE, priority 2019, dated 2025).

For data set [1], the system named is Atrogin-1/MAFbx. Description: Western Blotting analysis of Atrogin-1/MAFbx protein levels in C2C12 myotubes (atrophy induced by dexamethasone or TNFα). The note with it: for effect on Dexa-induced expression of Atrogin-1/MAFbx (protein) / expression of Atrogin-1/MAFbx (protein): C2C12 myotubes; for effect on Dexa-induced expression of Atrogin-1/MAFbx (protein): modulator(s) added 1 hour before Dexa 100 μM for 48 hours, 2 μM CYM5520, 1 μM VPC23019, 2 μM W146, 2 μM FTY720; for expression of Atrogin-1/MAFbx (protein): modulator(s) in absence of Dexa, 2 μM CYM5520, 1 μM VPC23019, 2 μM W146. It counts as cell-based, murine. The procedure: (§1) C2C12 murine skeletal myoblasts obtained from the American Type Culture Collection (ATCC, Manassas, VA, USA) were cultured in Dulbecco's Modified Eagle's Medium (DMEM) (Sigma, Milan, Italy) with L-glutamine 1%, penicillin/streptomycin 1% (Sigma, Milan, Italy) and Foetal Bovine Serum 10% (FBS) (Sigma, Milan, Italy). For experiments with the myotubes, myoblasts were seeded in 6-wells plates at a concentration of 0.2×10^6 cells/ml. When the cells reached 90-100% confluence (72 hours after seeding), the medium was replaced with the differentiation medium (DM), consisting of DMEM containing antibiotics, glutamine and horse serum (HS) 2% (Sigma, Milan, Italy). The medium was changed every 24-48 hours. The complete cell differentiation was observed after 4-6 days of incubation with HS 2%. The C2C12 skeletal myotubes were incubated for 24-48 hours with the indicated compounds: Sphingosine 1-phosphate (S1P) 2 μM, or different concentration of CYM5520, VPC23019 and/or W146 (in the concentration range between 0.25 and 2 μM). CYM5478, TY52156 and siRNA specific for S1PR3 (NCBI ref NM_010101.4, sequence 5′-[…]-3 ′1118-1139 SEQ ID NO: 1, same size random oligonucleotides were used as negative control SCR-siRNA) were used in some of the experiments. The agonists/antagonists or S1PR3-siRNA or SCR-siRNA were added to the culture medium for 1 hour prior to treatment of the myotubes with dexamethasone (Dexa) 100 μM for 48 hours.
The Western Blotting analysis was carried out for determining the protein levels of Atrogin-1/MAFbx in C2C12 myotubes. The cells were lysed at 4° C. with RIPA buffer containing TrisHCl 50 mM, pH 7.5, NaCl 120 mM, EDTA 1 mM, EGTA 6 mM, Na4P2O7 15 mM, NaF 20 mM, 1% of cocktail Nonidet and protease inhibitor (1.04 mM AEBSF, 0.08 mM of aprotinin, leupeptin 0.02 mM, bestatin 0.04 mM, pepstatin A […], E-64 […] (Sigma, St. Louis, MO, USA). The lysates were centrifuged at 600× g for 6 min at 4° C., and the proteins concentration was measured by using the Bradford assay (Bio-Rad, Hercules, CA). Aliquots containing 40 μg of proteins were diluted in loading buffer 2× (10% SDS, 50% glycerol, 0.25% bromophenol blue and 0.25 M Tris-HCl, pH 6.8) and boiled at 90° C. for 10 minutes to denature proteins. The samples were subjected to SDS-polyacrylamide 10-12% (SDS-PAGE) gel electrophoresis and to Western blotting on Amersham Hybond p 0.45 PVDF membrane (GE Healthcare, Buckinghamshire, UK). […] After blocking, the membranes were washed in PBST and then incubated overnight with a 1:1000 dilution of the primary antibody comprising rabbit polyclonal antibody with Atrogin-1/MAFbx. After sufficient washings with PBST, the membranes were incubated for 1 hour at room temperature with secondary antibodies conjugated with goat anti-rabbit or goat anti-mouse horseradish peroxidase (Santa Cruz, Texas, USA) at dilution 1:10.000/1:5.000. Following three washings with PBST, the bands corresponding to the immunoreactive proteins were seen by using reagents for the detection of the Western blotting ECL (GE Healthcare, Buckinghamshire, UK); and finally, the membranes were exposed to a high performance chemiluminescence film (GE Healthcare, Buckinghamshire, UK). The identity of the bands on the Western Blot membranes was confirmed by comparing them with a high-precision marker having a known molecular weight (BioRad, Hercules, CA). Densitometric analysis of the bands was performed by using NIH IMAGE J (ImageJ software, Bethesda, MD, USA) and Quantity-One (imaging and analysis software from Bio-Rad Laboratories, Hercules, CA) and the intensity of the band was indicated as a relative percentage (mean and standard deviation from the mean), obtained by calculating the ratio of the specific protein with respect to the β-actin intensity and normalizing it to the control, set to 1.
To test the role of exogenous S1Ps, the terminally differentiated myotubes were treated with the bioactive lipid.

Data set [2] concerns C2C12 myotubes. Description: Phase contrast microscopy of cellular morphology of C2C12 myotubes (diameter, number of myonuclei). Format: cell-based, murine. The note with it: for effect on atrophic morphology (myotube diameter, number of myonuclei): modulator(s) before Dexa 100 μM for 48 hours. The procedure: as §1
The images shown are representative of n. 5-6 observation frames for each treatment.
The C2C12 myoblasts were let to grow on a coverslip and when confluent they were moved on a differentiated medium for 4 days.
The C2C12 myotubes were grown on a coverslip and, when confluent, were moved onto a medium for the differentiation for 4 days. The cells were treated with the above reported combination of the three S1PR modulators before being incubated with Dexa for 48 hours. Then, the cells were fixed and observed with microscope.

A further data set relates to S1PR3 receptor. Description: Silencing of the expression of the S1PR3 receptor by siRNA in C2C12 myotubes. It counts as cell-based. As to conditions: incubation with siRNA specific for mouse S1PR3. As to the method:
C2C12 murine skeletal myoblasts obtained from the American Type Culture Collection (ATCC, Manassas, VA, USA) were cultured in Dulbecco's Modified Eagle's Medium (DMEM) (Sigma, Milan, Italy) with L-glutamine 1%, penicillin/streptomycin 1% (Sigma, Milan, Italy) and Foetal Bovine Serum 10% (FBS) (Sigma, Milan, Italy). For experiments with the myotubes, myoblasts were seeded in 6-wells plates at a concentration of 0.2×10^6 cells/ml. When the cells reached 90-100% confluence (72 hours after seeding), the medium was replaced with the differentiation medium (DM), consisting of DMEM containing antibiotics, glutamine and horse serum (HS) 2% (Sigma, Milan, Italy). The medium was changed every 24-48 hours. The complete cell differentiation was observed after 4-6 days of incubation with HS 2%. The C2C12 skeletal myotubes were incubated for 24-48 hours with the indicated compounds: Sphingosine 1-phosphate (S1P) 2 μM, or different concentration of CYM5520, VPC23019 and/or W146 (in the concentration range between 0.25 and 2 μM). CYM5478, TY52156 and siRNA specific for S1PR3 (NCBI ref NM_010101.4, sequence 5′-CGGGGUCCUCUGCAAGUGA-3 ′1118-1139 SEQ ID NO: 1, same size random oligonucleotides were used as negative control SCR-siRNA) were used in some of the experiments. […]

In data set [3] the test system is C2C12 myotubes. As to conditions: cited from earlier work.
In data set [4] the test system is Atrogin-1/MAFbx. The note with it: C2C12 myotubes, cited from earlier work.
The mark [5] stands for this setting: composition of the invention with CYM5520 replaced by the named compound (2 μM), in the presence of Dexa.

With `Cc1cc(C(=O)Cn2cc(C#N)ccc2=O)c(C)n1Cc1ccccc1` [CYM5520], in the data set on Atrogin-1/MAFbx [1], the “effect on Dexa-induced expression of Atrogin-1/MAFbx (protein)” value (“effect on Dexa-induced expression” for short) is on record as “only slightly counteracted the GC effect” and the “expression of Atrogin-1/MAFbx (protein)” value was “no increase was observed”. In addition, the “effect on atrophic morphology (myotube diameter, number of myonuclei)” value (from here on “effect on atrophic morphology”) in the data set on C2C12 myotubes [2] (C2C12 myotubes) is given as “not significantly reduced”.
“S1PR3-siRNA: double-stranded RNA of 21 nucleotides, SEQ ID NO:1, silencing the expression of the S1PR3 receptor (CGGGGUCCUCUGCAAGUGA; combined with other compounds, further chemistry not given here) [Combination S1PR3-siRNA]”: the “reduction of expression of the S1PR3 protein” value with S1PR3 receptor is given as 40%; with S1PR3 receptor (listed as SEQ ID NO:1) it was “about 40%”.
`CCCCCCCCc1cccc(NC(=O)C(N)COP(=O)(O)O)c1` (stereo not shown) [VPC23019, [2-amino-2-(3-octyl-phenylcarbamoyl)-ethyl] ester of phosphoric acid]: in the data set with Atrogin-1/MAFbx [1], the “effect on Dexa-induced expression” value is “did not counteract the effect of Dexa” and the “expression of Atrogin-1/MAFbx (protein)” value was “did not induce”. The “effect on atrophic morphology” value in the data set on C2C12 myotubes [2] (C2C12 myotubes) is “not significantly reduced”.
Turning to `Cc1cc(C(=O)Cn2cc(C(F)(F)F)ccc2=O)c(C)n1Cc1ccccc1` [CYM5478], the “effect on expression of Atrogin-1/MAFbx” value in the data set on Atrogin-1/MAFbx [1] (setting [5]) is “effect comparable with that obtained with the combination of the invention”. The “effect on cellular morphology” value with C2C12 myotubes [2] (setting [5]) was “effect comparable with that obtained with the combination of the invention”.
On to `CCCCCCCCc1ccc(CCC(N)(CO)CO)cc1` [FTY720], for which the “effect on Dexa-induced expression” value in the data set on Atrogin-1/MAFbx [1] is “not affected”. The “formation of autophagic vesicles (morphological analysis)” value with C2C12 myotubes [2] (C2C12 myotubes, FIG. 3C) is given as “promote the formation of small autophagic vesicles”.
Consider `CCCCCCc1cccc(NC(=O)[C@H](N)CCP(=O)(O)O)c1` [Combination W146], for which, in the data set on Atrogin-1/MAFbx [1], the “effect on Dexa-induced expression” value is given as “did not counteract the effect of Dexa” and the “expression of Atrogin-1/MAFbx (protein)” value is given as “did not induce”. Moreover, in the data set on C2C12 myotubes [2] (C2C12 myotubes), the “effect on atrophic morphology” value was “not significantly reduced”.
As to `CCCCCCCCCCCCC/C=C/[C@@H](O)[C@@H](N)COP(=O)(O)O` [Combination S1P, Sphingosine 1-phosphate], in the data set with C2C12 myotubes [3] (Dexa-treated cells in the presence of S1P, state of the art), the “cell morphology and number of nuclei” value is given as “no significant changes”. For the same compound, in the data set with C2C12 myotubes [3] (S1P without Dexa, FIG. 1B, 1C state of the art), the “morphological parameters of the myotubes (diameter and number of myonuclei)” value is “slightly change”. For the same compound, in the data set with Atrogin-1/MAFbx [4] (S1P (1 μM) before Dexa 100 μM for 48 hours, FIG. 1 state of the art), the Atrogin-1/MAFbx level result is “reduce the Atrogin-1/MAFbx level, restoring the basal levels”. Also, the “expression of Atrogin-1/MAFbx” value in the data set with Atrogin-1/MAFbx [4] (S1P (1 μM) without Dexa, FIG. 1A state of the art) is reported as “significantly increase”.
